The text below walks through data of paper PMC8260228, “Two de novo GluN2B mutations affect multiple NMDAR-functions and instigate severe pediatric encephalopathy” (eLife, 2021).

Each structure is given as a SMILES string. Where two headings read alike, the source gives them in different places.

The target of test [1] is T1, hGluN1a + hGluN2Bwt (Homo sapiens, UniProt Q05586+Q13224). Briefly: Assessing potentiation by D-serine, TEVC in oocytes. The settings on record: 100 μM D-serine, 5 mM glutamate, 1 μM glycine.
T1 sequence (Q13224 27-1484, other chains not shown): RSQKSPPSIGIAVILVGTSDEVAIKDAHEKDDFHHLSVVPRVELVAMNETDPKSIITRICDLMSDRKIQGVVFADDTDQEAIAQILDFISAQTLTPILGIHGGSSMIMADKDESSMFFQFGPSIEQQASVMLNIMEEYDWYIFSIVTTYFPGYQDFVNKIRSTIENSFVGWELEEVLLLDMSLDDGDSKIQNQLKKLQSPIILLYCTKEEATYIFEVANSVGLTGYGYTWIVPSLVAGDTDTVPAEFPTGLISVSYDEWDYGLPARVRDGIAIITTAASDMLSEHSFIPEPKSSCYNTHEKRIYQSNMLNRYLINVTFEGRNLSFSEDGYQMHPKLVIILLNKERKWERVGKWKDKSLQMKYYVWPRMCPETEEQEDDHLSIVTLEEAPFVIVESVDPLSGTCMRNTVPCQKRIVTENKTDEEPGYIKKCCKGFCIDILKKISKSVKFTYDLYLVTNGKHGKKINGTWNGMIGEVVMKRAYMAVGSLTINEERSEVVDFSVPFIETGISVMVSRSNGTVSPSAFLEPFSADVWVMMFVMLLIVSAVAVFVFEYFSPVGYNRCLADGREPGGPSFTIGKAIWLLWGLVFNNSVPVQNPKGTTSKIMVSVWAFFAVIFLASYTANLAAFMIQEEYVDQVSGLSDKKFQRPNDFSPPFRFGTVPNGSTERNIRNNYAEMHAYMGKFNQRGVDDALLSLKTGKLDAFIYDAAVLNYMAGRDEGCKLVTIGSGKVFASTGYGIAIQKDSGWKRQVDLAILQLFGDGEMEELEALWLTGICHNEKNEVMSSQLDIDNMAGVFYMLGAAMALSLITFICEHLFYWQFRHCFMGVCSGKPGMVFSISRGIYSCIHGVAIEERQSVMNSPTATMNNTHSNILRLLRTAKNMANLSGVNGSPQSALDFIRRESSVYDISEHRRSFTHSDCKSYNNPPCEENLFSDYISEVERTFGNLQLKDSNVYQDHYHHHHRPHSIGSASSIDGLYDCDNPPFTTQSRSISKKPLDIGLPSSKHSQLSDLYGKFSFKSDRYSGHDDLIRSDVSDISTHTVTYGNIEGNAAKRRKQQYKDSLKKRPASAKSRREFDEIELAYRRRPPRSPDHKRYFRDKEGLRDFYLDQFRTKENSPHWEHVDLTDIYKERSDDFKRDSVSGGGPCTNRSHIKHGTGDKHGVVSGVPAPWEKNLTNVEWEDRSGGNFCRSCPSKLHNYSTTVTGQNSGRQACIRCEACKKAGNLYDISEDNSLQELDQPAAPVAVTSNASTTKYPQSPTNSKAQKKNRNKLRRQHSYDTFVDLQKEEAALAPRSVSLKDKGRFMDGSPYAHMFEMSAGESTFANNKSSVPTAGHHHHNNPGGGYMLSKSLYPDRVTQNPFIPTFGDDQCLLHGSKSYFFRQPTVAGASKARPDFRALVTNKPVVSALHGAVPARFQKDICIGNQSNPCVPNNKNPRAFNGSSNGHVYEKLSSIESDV
The next test deals with GluN1. More on the design: method as in Traynelis et al., 2010. The following applies: ref Traynelis et al., 2010; cited from earlier work.
The test system of a further test is GluN2B-E413G. Details: method as in Swanger et al., 2016. The settings on record: read-out: glutamate potency EC50; ref Swanger et al., 2016; cited from earlier work.
The target in test [2] is T1, hGluN1a + hGluN2Bwt. Briefly: Glutamate dose-response, TEVC in Xenopus oocytes. Type of test: cell-based. Details: expressed in transfected cells; host or cells: Xenopus laevis oocytes injected with in vitro transcribed mRNA (pCI-Neo plasmids produced by the Traynelis lab). From the text:
All Experiments were approved by the Technion Institutional Animal Care and Use Committee (permit SB, no. IL-129-09-17). Xenopus laevis oocytes were harvested, prepared, and injected with mRNA as previously described ([Berlin et al., 2020]). Briefly, oocytes were obtained from anesthetized (by 0.4% tricaine solution) female frogs. Oocytes were extracted from ovaries, defolliculated by collagenase treatment in ND96 Ca^+2-free solution (in mM: 96 NaCl, 2 KCL, 1 MgCl2, 5 HEPES, pH 7.4) for about 45 min at RT. Cells were washed with ND96 Ca^+2 -free and transferred to enriched ND96 (NDE) consisting of ND96 supplemented with 1.8 mM CaCl2, 2.5 mM sodium pyruvate, 100 μg/ml streptomycin and 62.75 μg/ml penicillin. Stage V oocytes were manually isolated, incubated overnight at 18°C and injected with mRNA the next day.
For mRNA preparation, DNA plasmids were linearized by restriction enzymes (NotI), followed by in vitro mRNA transcription using mMessage-mMachine T7 kit (Thermo Scientific, Cat.#AM1344), as previously described ([Berlin et al., 2010]). mRNA concentrations were determined using a spectrophotometer. […]
Data were analyzed by Clampfit software (Molecular Devices, USA) and were fitted using Sygmaplot 11 (Systat software, inc) to Hill’s equation (Equation 1) from which we extracted EC50 values.

For the next test, the system named is GRIN2A mutation D731N. More on the design: method as in Swanger et al., 2016. The following applies: ref Swanger et al., 2016; cited from earlier work.
The test system of the next test is GluN2B-mutant. Details: method as in Soto et al., 2019. The following applies: ref Soto et al., 2019; cited from earlier work.
Test [3] has as its target T1, hGluN1a + hGluN2Bwt. The settings on record: read-out: Glycine EC50; 5 mM glutamate. The method, then:
Two electrode voltage clamp (TEVC) recordings were carried-out 24–72 hr following mRNA injections, as previously described ([Berlin et al., 2011]). Recordings were performed using commercial amplifier (Warner Instruments, USA) and Digitizer (Digidata-1550B; Molecular Devices, USA), controlled by pClamp10 software (Molecular Devices, USA). Electrodes consisted of pulled glass capillaries (by puller- Narishige, Japan) with chlorinated silver wire, filled with 3M KCl. Oocytes were clamped to −60 mV and perfused with nominally Mg^+2-free barth solution (in mM): 100 NaCl, 0.3 BaCl2, 5 HEPES, pH 7.3 (adjusted with NaOH).
Data were analyzed by Clampfit software (Molecular Devices, USA) and were fitted using Sygmaplot 11 (Systat software, inc) to Hill’s equation (Equation 1) from which we extracted EC50 values. […] IC50 values for Mg^+2 and proton inhibition were extrapolated by fitting the results to Hill’s equation (Equation 4). τoff values for apparent open probability were extrapolated by fitting the result to a mono-exponential function (Equation 5). t10-90% results were obtained by placing cursors at beginning and end of responses, then automatically assessed by the Clampfit software (under statistics, positive going). mEPSCs were detected off-line using pCLAMP 10’s template search. Briefly, 5–10 ‘minis’ were identified and selected by user, followed by an automated search. […]

Test [4] concerns the target T1, hGluN1a + hGluN2Bwt. Briefly: Apparent open probability: MK-801 block kinetics, TEVC in oocytes. Type of test: cell-based. The following applies: 1 μM MK-801 after 3 mM glutamate, 100 μM glycine. Details: expressed in transfected cells; host or cells: Xenopus laevis oocytes injected with in vitro transcribed mRNA (pCI-Neo plasmids produced by the Traynelis lab). As to the method: MK-801 (activity-dependent pore blocker of GluNRs) was purchased from Alomone labs (cat.# M-230). One mM stock solutions were made by diluting lyophilized MK-801 in barth solution. […] Deactivation kinetics were fitted from which we extracted t10-90% or deactivation constant, τoff.
Data were analyzed by Clampfit software (Molecular Devices, USA) and were fitted using Sygmaplot 11 (Systat software, inc) to Hill’s equation (Equation 1) from which we extracted EC50 values. […] IC50 values for Mg^+2 and proton inhibition were extrapolated by fitting the results to Hill’s equation (Equation 4). τoff values for apparent open probability were extrapolated by fitting the result to a mono-exponential function (Equation 5). t10-90% results were obtained by placing cursors at beginning and end of responses, then automatically assessed by the Clampfit software (under statistics, positive going). mEPSCs were detected off-line using pCLAMP 10’s template search. Briefly, 5–10 ‘minis’ were identified and selected by user, followed by an automated search. All automatically identified minis were validated by user.

Test [5] concerns the target T1, hGluN1a + hGluN2Bwt. Briefly: Mg2+ dose-response (block), TEVC in Xenopus oocytes. Type of test: cell-based. Details: expressed in transfected cells; host or cells: Xenopus laevis oocytes injected with in vitro transcribed mRNA (pCI-Neo plasmids produced by the Traynelis lab). The settings on record: 5 mM glutamate, 100 μM glycine, −60 mV; read-out: Mg^+2 IC50 (−60 mV).

In another test the test system is GluN2B-subunit. The settings on record: read-out: spermine reported EC50; ref Mony et al., 2011; cited from earlier work.
The target in test [6] is T1, hGluN1a + hGluN2Bwt. The method, then:
With the intent to rescue (i.e. increase) current amplitudes, we turned our attention toward spermine— a naturally-occurring and highly specific GluN2B-subunit potentiator ([Mony et al., 2009]; [Mony et al., 2011]). […] To further address this issue we employed arcaine-sulfate (a competitive antagonist of the polyamine site [[Gomes et al., 2014]; [Araneda et al., 1999]; [Reynolds, 1990]]).
Spermine was purchased from Sigma-Aldrich (Cat. #S3256). A total of 200 mM stock solutions were made by diluting powdered spermine in barth solution at different pHs (6.3 and 7.3). […] Arcaine sulfate was purchased from Alomone labs (Cat. # 14923-17-2). Ten mM solutions were made by diluting lyophilized Arcaine sulfate in barth solution at pH = 6.5.

Broadly, the EC50 is the midpoint of the concentration-response curve. In the case of `N[C@H](CO)C(=O)O` [D-serine], the “increase of the maximal current by D-serine” value at hGluN1a + hGluN2Bwt [1] is ~ 35%. Besides, the EC50 with GluN1 was approximately 0.7 µM.
In the case of `N[C@@H](CCC(=O)O)C(=O)O` [Glutamate, glutamate], the EC50 in the test on GluN2B-E413G was 79 ± 5.3 µM. Also, the “Imax Norm. to wt” value on hGluN1a + hGluN2Bwt [2] (normalized maximal glutamate current, oocytes) is on record as 1 ± 0.08; (22). Further, the “contribution to the total current by excess glutamate >100 μM” value on hGluN1a + hGluN2Bwt [2] (receptors saturated at 100 μM glutamate) is on record as less than 15%. Moreover, the “reduction in glutamate potency” value in the test with GRIN2A mutation D731N is ~ 6000 fold. Also, the “reduction in EC50” value in the test on GluN2B-mutant is recorded as ~ 7 fold.
For the molecule `NCC(=O)O` [Glycine, glycine], the EC50 with GluN1 was […]; on hGluN1a + hGluN2Bwt [3], 0.23 ± 0.03 µM.
Take `C[C@]12N[C@H](Cc3ccccc31)c1ccccc12` [MK-801]: the “10–90% inhibition rate” value at hGluN1a + hGluN2Bwt [4] is reported as 8554 ± 827 ms; (24). On hGluN1a + hGluN2Bwt [4] (mono-exponential fit), the τoff is listed as 4590 ± 603 ms; (24).
Usually IC50 stands for the concentration that gives 50% inhibition. `[Mg+2]` [Mg^+2]: on hGluN1a + hGluN2Bwt [5], the half-maximal inhibitory concentration (IC50) is 31 ± 3.7 µM.
For the molecule `NCCCNCCCCNCCCN` [spermine], in the test on GluN2B-subunit, the EC50 was 200 µM. The potentiation by spermine on hGluN1a + hGluN2Bwt [6] (200 μM spermine, pH 6.3) was ~ 25 fold; on hGluN1a + hGluN2Bwt [6] (200 μM spermine, pH 7.3) it was ~ 70%. At hGluN1a + hGluN2Bwt [6] (200 μM spermine, pH 7.3, 5 mM glutamate, 100 μM glycine), the “current with spermine relative to basal glutamate current” value is listed as 172%. On hGluN1a + hGluN2Bwt [6] (pH 7.3), the “inhibition by higher spermine concentrations” value is given as “not observed”.
